The text below walks through data of patent US4235923A, “Esters of 3-substituted-2-(aminocarbonyl)oxiranecarboxylic acids as lipogenesis inhibitors” (Shell Oil Company, priority 1979, dated 1980).

Each structure is given as a SMILES string.

The test system of the first experiment is lipogenesis in swine adipose tissue. Description: inhibition of lipogenesis (incorporation of radioactive glucose carbon into lipid) in slices of swine adipose tissue. Type of experiment: cell-based. As to conditions: 100 micrograms per milliliter, 37° C., 2 hours, glucose-U^14 C, insulin, 5% DMSO, triplicate. An excerpt:
The manner in which they cause this effect is not known with certainty; it is believed that they interfere with the synthesis of fatty acids in the tissues. Their effectiveness for this purpose has been ascertained by immersing samples of swine adipose tissue in a liquid medium containing radioactive glucose and the test chemical, for a period of time, then isolating the lipid from the treated tissue and determining the incorporation of the radioactive carbon into lipid by means of scintillation counting techniques. These tests were conducted in swine adipose tissue because in swine, the primary site of lipogensis--i.e., fatty acid synthesis--appears to be adipose tissue.
Described in more detail, the tests were conducted according to the following general procedure:
150 milligrams of slices of swine adipose tissue were incubated at 37° C. for 2 hours with shaking in 3 milliliters of Krebs-Ringer bicarbonate solution containing one-half the normal calcium ion concentration, 60 micromoles of glucose, 0.5 micro-Curie of glucose-U^14 C, and 300 microunits of insulin, and 5% dimethyl sulfoxide (DMSO). The test compounds were added as suspensions or solutions in DMSO and were present at a concentration of 100 micrograms per milliliter of the incubation mixture.
The incubation was terminated by addition of 0.25 milliliter of 1 N sulfuric acid. The resulting mixture was extracted with a total of 25 milliliters of chloroform: methanol (2:1 v/v). The extracts were washed according to Folch et al. (J. Biol. Chem., 226, 497-509, (1957)), air dried, and counted in a liquid scintillation counter with 15 milliliters of counting fluid (two parts toluene containing 0.4% w/v New England Nuclear Omnifluor: 1 part Triton X-100). The tests were conducted in triplicate and were accompanied by control tests in which all ingredients,proportions and conditions were the same except that no test compound was included. From the data obtained were calculated the percent inhibition of lipid synthesis by the test compound in each case. The data obtained from the tests are set out in Table 1, as the percent inhibition of lipogenesis compared to the results obtained in the control tests wherein only the test compound was omitted.
With `CCCCCCC1OC1(C(N)=O)C(=O)OCC` (stereo not drawn) [Compound 2, Ethyl 2-(aminocarbonyl)-3-hexyloxiranecarboxylate cis], the “Percent Inhibition (of lipogenesis compared to control)” value came to 83%.

The same experiment, now with this note: Sus scrofa, 2 h, 100 micrograms per milliliter, 37° C., glucose-U^14 C, insulin, 5% DMSO, triplicate, read-out: Percent Inhibition (of lipogenesis compared to control).
One may read the inhibition as the percentage by which the read-out fell short of the control. For the compound `CCOC(=O)C1(C(N)=O)OC1c1cccc([N+](=O)[O-])c1` (stereo not shown) [Compound 12], the inhibition at 100 µg/mL was 76%. The same measure, in the same setting: with `CCOC(=O)C1(C(N)=O)OC1c1ccc(OC)cc1` (stereo not shown) [Compound 14] the figure was 55%. The same measure, in the same setting: as for `CCOC(=O)C1(C(N)=O)OC1c1ccccc1` (stereo not shown) [Compound 5, Ethyl 2-(aminocarbonyl)-3-phenyloxiranecarboxylate], the figure is 85%; as for `COC(=O)C1(C(N)=O)OC1c1ccccc1` (stereo not shown) [Compound 8, Methyl 2-(aminocarbonyl)-3-phenyloxiranecarboxylate], 47%; as for `CCOC(=O)C1(C(N)=O)OC1c1ccc([N+](=O)[O-])cc1` (stereo not shown) [Compound 15], 37%.

For `CCOC(=O)C1(C(N)=O)OC1c1ccc(OC)c(OC)c1` (stereo not shown) [Compound 11], the inhibition at 100 µg/mL came to 33%. Same read-out and setting: as for `CCCCCCC1OC1(C(N)=O)C(=O)OCC` (stereo not drawn) [Compound 1, Ethyl 2-(aminocarbonyl)-3-hexyloxiranecarboxylate trans], the figure is 88%; as for `CCOC(=O)C1(C(N)=O)OC1c1ccc(C)cc1` (stereo not shown) [Compound 10], 37%.

As for `CC(C)OC(=O)C1(C(N)=O)OC1c1ccccc1` (stereo not shown) [Compound 7, 1-Methylethyl 2-(aminocarbonyl)-3-phenyloxiranecarboxylate], the inhibition at 100 µg/mL amounted to 48%. On the same count and under the same terms, with `CCOC(=O)C1(C(N)=O)OC1C(=O)c1ccccc1` (stereo not shown) [Compound 16, Ethyl 2-(aminocarbonyl)-3-benzoyloxiranecarboxylate] the figure was 74%; with `CCOC(=O)C1(C(=O)NC)OC1c1ccccc1` (stereo not shown) [Compound 6], 27%. Regarding `CCOC(=O)C1(C(N)=O)OC1C1CCCCC1` (stereo not shown) [Compound 4, Ethyl 2-(Aminocarbonyl)-3-cyclohexyloxiranecarboxylate], the inhibition at 100 µg/mL was found to be 75%. The same measure, in the same setting: with `CCOC(=O)C1(C(N)=O)OC1C` (stereo not shown) [Compound 3, Ethyl 2-(aminocarbonyl)-3-methyloxiranecarboxylate] the figure was 18%; with `CCOC(=O)C1(C(N)=O)OC1c1ccc(Cl)c(Cl)c1` (stereo not shown) [Compound 13], 87%; with `CCOC(=O)C1(C(N)=O)OC1c1ccc(Cl)cc1` (stereo not shown) [Compound 9], 65%.
